In data set [1] the target is Cytochrome P450 2C19 (Homo sapiens, UniProt P33261). Put plainly: Inhibition of human hepatic CYP2C19. Type of data set: ADME.
Data set [2] concerns T47D. Put plainly: Estrogenic activity in human ER expressing T47D cells assessed as stimulation of cell proliferation at 100 nM by MTT assay. Type of data set: functional, cell-based.
Data set [3] concerns the target Cytochrome P450 2D6 (Homo sapiens, UniProt P10635). Put plainly: Inhibition of human hepatic CYP2D6. Type of data set: ADME.
Data set [4] concerns the target Estrogen receptor beta (Homo sapiens) (UniProt Q92731). Put plainly: Displacement of [2,4,6,7-3H]17beta-estradiol from human recombinant ERbeta receptor relative to 17-beta-estradiol.
Data set [5] concerns the target T1, Cytochrome P450 1A2 (Homo sapiens, UniProt P05177).
T1 sequence (P05177 whole entry): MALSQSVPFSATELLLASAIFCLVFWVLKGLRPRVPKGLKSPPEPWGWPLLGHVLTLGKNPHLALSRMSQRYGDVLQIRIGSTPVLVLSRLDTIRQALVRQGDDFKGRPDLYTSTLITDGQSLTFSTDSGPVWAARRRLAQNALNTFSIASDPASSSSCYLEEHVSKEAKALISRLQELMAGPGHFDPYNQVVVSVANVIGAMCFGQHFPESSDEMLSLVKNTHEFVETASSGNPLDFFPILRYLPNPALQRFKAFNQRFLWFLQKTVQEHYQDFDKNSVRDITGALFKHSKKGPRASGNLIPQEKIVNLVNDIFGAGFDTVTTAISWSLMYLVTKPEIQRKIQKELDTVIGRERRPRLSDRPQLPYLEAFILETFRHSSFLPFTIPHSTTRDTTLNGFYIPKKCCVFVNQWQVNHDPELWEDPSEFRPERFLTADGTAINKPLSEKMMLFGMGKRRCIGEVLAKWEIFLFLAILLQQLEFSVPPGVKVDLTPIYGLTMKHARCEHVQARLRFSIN
Put plainly: Inhibition of human hepatic CYP1A2. Type of data set: ADME.

In data set [6] the target is T2, 17-beta-hydroxysteroid dehydrogenase type 2 (Homo sapiens, UniProt P37059).
T2 sequence (P37059 whole entry): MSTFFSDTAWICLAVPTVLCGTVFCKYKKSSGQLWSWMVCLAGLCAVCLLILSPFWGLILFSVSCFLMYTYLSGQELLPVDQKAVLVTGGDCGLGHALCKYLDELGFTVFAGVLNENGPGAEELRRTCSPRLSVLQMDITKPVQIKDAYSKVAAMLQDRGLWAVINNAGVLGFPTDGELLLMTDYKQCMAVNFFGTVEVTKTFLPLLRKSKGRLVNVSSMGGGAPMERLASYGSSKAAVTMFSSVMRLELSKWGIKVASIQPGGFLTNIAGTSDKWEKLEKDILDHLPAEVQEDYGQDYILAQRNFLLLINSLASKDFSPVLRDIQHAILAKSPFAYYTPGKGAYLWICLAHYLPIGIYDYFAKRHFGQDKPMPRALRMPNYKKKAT
Put plainly: Inhibition of human placental microsomal 17beta-HSD2.

For data set [7], the target named is T3, 17-beta-hydroxysteroid dehydrogenase type 1 (Homo sapiens, UniProt P14061).
T3 sequence (P14061 whole entry): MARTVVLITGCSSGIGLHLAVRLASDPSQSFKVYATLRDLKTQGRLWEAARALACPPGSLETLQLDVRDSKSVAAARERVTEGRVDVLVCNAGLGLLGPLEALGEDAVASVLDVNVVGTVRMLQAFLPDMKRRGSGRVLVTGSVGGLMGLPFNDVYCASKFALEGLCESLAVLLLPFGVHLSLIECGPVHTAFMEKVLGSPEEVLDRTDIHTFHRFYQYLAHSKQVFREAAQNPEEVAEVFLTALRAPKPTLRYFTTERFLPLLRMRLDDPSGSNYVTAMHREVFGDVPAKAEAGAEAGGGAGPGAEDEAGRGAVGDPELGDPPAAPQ
Kind of data set: Inhibition of human placental cytosolic 17beta-HSD1.

In data set [8] the target is T4, Estrogen receptor (Homo sapiens) (UniProt P03372).
T4 sequence (whole entry): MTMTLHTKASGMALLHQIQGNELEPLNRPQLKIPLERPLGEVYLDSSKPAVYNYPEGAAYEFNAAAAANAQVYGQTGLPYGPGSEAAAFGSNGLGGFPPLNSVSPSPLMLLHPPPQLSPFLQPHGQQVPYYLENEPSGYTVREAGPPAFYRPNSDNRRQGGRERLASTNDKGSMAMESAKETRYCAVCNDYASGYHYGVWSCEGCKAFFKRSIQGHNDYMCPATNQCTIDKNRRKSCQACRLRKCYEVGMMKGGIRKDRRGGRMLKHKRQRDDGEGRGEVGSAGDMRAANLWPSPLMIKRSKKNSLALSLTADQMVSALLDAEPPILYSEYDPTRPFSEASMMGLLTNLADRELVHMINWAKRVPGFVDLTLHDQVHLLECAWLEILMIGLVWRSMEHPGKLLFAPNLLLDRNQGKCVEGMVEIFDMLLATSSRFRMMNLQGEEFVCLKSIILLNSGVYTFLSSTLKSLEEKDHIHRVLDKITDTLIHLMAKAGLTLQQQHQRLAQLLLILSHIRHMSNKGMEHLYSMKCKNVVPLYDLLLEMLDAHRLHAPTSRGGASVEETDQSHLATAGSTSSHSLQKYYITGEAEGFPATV
Put plainly: Displacement of [2,4,6,7-3H]17beta-estradiol from human recombinant ERalpha receptor relative to 17-beta-estradiol.

A short description of data set [9]: in vitro. The conditions noted are these: Sprague-Dawley, rat, liver microsomes. For orientation: Liver microsomes are a subcellular fraction often used to study metabolism.
Data set [10] addresses T5, Cytochrome P450 2B6 (Homo sapiens, UniProt P20813).
T5 sequence (P20813 whole entry): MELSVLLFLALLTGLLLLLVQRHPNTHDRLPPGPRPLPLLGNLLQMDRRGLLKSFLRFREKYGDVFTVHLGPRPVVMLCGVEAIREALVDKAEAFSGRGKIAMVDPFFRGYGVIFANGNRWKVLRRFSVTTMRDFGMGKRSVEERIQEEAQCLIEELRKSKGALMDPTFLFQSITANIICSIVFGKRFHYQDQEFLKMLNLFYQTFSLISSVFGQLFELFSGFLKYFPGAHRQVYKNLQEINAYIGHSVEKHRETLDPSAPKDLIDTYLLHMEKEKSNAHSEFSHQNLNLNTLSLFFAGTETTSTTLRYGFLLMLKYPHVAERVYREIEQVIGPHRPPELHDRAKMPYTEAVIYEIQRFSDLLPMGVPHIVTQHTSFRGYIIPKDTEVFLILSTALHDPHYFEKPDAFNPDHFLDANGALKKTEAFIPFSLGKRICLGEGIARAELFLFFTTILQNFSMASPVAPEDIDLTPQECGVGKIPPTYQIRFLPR
Kind of data set: Inhibition of human hepatic CYP2B6. Type of data set: ADME.

Data set [11] is described as follows: in vitro. The note with it: human, Caco-2.
Description: Apparent permeability across human Caco-2 cells at 50 uM
Data set [12] has as its target Cytochrome P450 2C9 (Homo sapiens, UniProt P11712). Put plainly: Inhibition of human hepatic CYP2C9. Type of data set: ADME.
Data set [13] can be described thus: in vitro. The conditions noted are these: Sprague-Dawley, rat, liver microsomes. This is another data set of the same source.
Data set [14] addresses Cytochrome P450 3A4 (Homo sapiens, UniProt P08684). Put plainly: Inhibition of human hepatic CYP3A4.

SMILES strings stand for the structures. pIC50: −log10 of the molar value. Active and inactive are the calls of the source. No cut-off for these calls is given here.

This note sets out measurements from ChEMBL document CHEMBL1142534, “Design, synthesis, biological evaluation and pharmacokinetics of bis(hydroxyphenyl) substituted azoles, thiophenes, benzenes, and aza-benzenes as potent and selective nonsteroidal inhibitors of 17beta-hydroxysteroid dehydrogenase type 1 (17beta-HSD1)” (J Med Chem, 2008).

Usually pIC50 stands for −log10 of the IC50, conventionally taken in molar units. A higher pIC50 goes with a small IC50. The term microsomal CLint denotes a measure of how fast metabolising enzymes remove a compound, apart from limits set by blood flow. The low end stands for slow turnover, the high end for rapid turnover. The Papp is the rate of passage across a membrane or cell layer, normalised by area and donor concentration. A higher Papp goes with ready permeation. What is called half-life is the time in which the quantity being followed falls by half. The low end stands for rapid decline, the high end for slow decline.

Cytochrome P450 3A4, sequence (P08684 whole entry): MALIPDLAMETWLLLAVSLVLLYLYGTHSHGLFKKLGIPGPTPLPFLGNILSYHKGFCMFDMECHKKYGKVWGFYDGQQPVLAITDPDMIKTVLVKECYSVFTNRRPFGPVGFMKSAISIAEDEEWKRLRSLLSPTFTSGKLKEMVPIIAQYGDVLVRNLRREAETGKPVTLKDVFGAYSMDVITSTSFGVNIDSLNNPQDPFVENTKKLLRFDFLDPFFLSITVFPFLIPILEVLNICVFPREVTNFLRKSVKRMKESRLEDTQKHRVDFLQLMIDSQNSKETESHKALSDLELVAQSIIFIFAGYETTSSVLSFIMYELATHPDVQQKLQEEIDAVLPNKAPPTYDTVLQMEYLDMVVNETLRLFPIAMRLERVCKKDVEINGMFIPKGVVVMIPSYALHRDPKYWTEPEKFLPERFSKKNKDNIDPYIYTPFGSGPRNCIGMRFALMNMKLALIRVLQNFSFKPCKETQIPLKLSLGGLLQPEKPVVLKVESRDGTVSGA
Cytochrome P450 2D6, sequence (P10635 whole entry): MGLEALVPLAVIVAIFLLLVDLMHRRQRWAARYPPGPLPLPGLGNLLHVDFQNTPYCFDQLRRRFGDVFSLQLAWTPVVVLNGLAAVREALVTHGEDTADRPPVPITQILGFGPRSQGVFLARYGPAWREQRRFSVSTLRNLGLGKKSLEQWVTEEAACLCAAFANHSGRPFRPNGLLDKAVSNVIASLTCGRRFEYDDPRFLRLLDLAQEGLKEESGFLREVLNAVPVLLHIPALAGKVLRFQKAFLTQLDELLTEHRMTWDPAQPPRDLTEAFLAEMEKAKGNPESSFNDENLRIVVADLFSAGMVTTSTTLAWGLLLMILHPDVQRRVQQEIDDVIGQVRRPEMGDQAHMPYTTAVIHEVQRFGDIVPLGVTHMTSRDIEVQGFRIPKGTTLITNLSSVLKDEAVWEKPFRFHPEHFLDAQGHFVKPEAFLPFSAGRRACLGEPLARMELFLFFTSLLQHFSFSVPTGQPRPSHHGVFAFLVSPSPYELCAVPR
Cytochrome P450 2C19, sequence (P33261 whole entry): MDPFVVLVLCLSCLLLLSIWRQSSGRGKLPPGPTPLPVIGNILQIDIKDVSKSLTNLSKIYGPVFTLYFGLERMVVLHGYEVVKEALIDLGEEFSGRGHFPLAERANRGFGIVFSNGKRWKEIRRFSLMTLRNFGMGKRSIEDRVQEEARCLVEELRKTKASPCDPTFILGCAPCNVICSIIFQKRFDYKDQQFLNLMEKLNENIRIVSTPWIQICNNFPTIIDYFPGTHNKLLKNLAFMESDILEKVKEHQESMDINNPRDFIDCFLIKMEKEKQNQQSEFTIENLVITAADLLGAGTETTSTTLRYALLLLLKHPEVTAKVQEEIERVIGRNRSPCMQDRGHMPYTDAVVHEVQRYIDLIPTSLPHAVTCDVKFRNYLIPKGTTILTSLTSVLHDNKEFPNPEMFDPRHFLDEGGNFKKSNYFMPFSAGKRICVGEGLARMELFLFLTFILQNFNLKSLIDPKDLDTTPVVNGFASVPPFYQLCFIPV
Cytochrome P450 2C9, sequence (P11712 whole entry): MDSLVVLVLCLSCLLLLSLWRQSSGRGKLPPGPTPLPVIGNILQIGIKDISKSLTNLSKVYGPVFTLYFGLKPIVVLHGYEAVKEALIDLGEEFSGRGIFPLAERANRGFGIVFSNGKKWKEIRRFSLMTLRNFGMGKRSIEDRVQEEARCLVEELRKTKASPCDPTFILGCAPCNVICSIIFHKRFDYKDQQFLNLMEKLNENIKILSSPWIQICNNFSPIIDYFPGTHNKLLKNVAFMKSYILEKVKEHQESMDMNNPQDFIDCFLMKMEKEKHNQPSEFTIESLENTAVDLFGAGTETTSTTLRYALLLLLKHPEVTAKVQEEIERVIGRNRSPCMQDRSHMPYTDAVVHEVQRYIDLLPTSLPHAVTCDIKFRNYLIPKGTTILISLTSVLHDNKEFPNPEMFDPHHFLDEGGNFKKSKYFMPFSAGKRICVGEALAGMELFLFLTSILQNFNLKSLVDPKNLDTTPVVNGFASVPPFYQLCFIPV
Estrogen receptor beta (Homo sapiens), sequence (Q92731 whole entry): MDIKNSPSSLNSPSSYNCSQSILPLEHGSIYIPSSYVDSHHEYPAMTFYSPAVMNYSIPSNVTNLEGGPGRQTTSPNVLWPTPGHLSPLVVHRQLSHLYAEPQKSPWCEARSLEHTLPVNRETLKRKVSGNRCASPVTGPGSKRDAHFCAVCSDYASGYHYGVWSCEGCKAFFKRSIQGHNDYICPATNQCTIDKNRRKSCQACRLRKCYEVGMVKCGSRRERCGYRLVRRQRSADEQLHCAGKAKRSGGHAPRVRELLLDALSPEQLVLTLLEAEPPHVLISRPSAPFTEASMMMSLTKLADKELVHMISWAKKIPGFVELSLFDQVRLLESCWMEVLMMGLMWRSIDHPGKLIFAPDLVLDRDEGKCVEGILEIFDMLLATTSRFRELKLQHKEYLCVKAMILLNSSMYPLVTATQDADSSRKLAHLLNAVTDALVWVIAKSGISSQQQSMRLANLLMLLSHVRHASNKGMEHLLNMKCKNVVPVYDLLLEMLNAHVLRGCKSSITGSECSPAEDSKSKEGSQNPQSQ

As to `Oc1cccc(-c2ccc(-c3cccc(O)c3)cc2)c1`, the pIC50 was below 5.40 in data set [1]; below 5.40 in data set [3]; below 5.40 in [5]; 5.65 in data set [6]; 6.76 in data set [7]; below 5.40 in data set [10]. Further, the pIC50 in data set [12] is 5.72; in data set [14], 5.68. Moreover, the result in data set [2] was inactive. In addition, the results for the RBA in data set [4] and in data set [8] were 0.01% and below 0.001%, respectively. This compound also showed a microsomal CLint at 1 µM in data set [9] of 203 µL/min/mg. Also, the Papp at 50 µM in data set [11] was determined as 12.5 ×10⁻⁶ cm/s. In data set [13], this compound had a half-life at 1 µM of 22.7 min.
